How the values were obtained:
[1] = target: T1, trypanothione reductase (Leishmania infantum, UniProt A4HSF7); experiment: X-ray crystal structure at […] Å; format: biochemical
[2] = target: T1, trypanothione reductase; experiment: NADPH oxidation kinetics at […] nm, Lineweaver–Burk and Dixon plots; format: biochemical

T1 sequence (A4HSF7 1-491): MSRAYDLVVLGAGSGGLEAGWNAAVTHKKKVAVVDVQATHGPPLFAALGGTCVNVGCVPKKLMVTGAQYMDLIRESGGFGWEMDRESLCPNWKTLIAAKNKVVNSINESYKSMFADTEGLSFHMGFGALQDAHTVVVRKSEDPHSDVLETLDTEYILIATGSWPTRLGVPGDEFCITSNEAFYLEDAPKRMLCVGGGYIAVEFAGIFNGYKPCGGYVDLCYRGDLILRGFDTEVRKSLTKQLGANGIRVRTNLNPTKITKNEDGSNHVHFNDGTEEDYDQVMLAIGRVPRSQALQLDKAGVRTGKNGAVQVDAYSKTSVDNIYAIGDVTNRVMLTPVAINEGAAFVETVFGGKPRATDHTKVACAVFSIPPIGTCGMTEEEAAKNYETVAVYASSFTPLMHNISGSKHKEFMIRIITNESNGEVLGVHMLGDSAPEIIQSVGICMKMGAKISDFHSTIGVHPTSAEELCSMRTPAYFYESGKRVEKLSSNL

Row | SMILES | Ki [1] [nM] | Ki [2] [nM]
1 | CC[P](CC)(CC)=[Au][S][C@@H]1O[C@H](COC(C)=O)[C@@H](OC(C)=O)[C@H](OC(C)=O)[C@H]1OC(C)=O [AF, auranofin] | 155 ± 35 | 
2 | CCP(CC)CC.[Au+].[Cl-] [CTPAu, Chloro(triethylphosphine)gold(I)] |  | 18 ± 7
